Results as given in US11701345B2, “Car activator agents for cyclophosphamide-based treatments of cancer” (UNIVERSITY OF MARYLAND, BALTIMORE, priority 2017, dated 2023).
“Also recorded” adds a separate entry of the source.

Assays:
hCAR = target: T1, hCAR (Homo sapiens, UniProt Q14994, INS274A); test: hCAR-mediated CYP2B6 luciferase reporter gene activation in transfected HepG2 cells; type: cell-based; conditions: for activation of hCAR: concentrations under 1 μm, FIGS. 3E-3J
T1 construct: expressed in transfected cells; host or cells: HepG2
T1 sequence (Q14994 with tags, fused parts or gaps isoform Q14994-2 INS270A): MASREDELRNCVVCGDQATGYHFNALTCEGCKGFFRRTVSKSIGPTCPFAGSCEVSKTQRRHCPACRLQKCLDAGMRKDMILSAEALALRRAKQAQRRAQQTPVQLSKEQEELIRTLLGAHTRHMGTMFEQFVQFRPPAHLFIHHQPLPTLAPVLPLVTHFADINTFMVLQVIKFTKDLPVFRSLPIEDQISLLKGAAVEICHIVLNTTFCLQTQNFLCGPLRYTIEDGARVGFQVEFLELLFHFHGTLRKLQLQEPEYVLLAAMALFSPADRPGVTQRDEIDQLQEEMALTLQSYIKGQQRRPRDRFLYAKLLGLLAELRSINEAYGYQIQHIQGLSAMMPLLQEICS
T1 sequence (P19793 1-462 partner): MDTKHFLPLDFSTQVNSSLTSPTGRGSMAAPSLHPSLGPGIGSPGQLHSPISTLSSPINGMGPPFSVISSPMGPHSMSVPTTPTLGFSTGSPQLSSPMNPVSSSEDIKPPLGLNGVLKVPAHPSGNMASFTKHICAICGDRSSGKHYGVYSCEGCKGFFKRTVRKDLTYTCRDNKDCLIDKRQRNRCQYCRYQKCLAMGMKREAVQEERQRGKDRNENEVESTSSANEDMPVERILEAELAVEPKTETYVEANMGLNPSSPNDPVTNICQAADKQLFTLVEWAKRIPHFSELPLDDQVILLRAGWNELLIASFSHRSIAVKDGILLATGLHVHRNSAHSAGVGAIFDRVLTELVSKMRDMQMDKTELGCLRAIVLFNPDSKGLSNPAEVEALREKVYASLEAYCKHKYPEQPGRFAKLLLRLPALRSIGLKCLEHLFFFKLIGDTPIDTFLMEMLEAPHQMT
Protocol: (§1) Using CITCO as a model compound, the biological activity of CITCO has been evaluated for its selective activation of hCAR vs. hPXR in luciferase reporter assays, and its effects on CYP2B6 expression at both mRNA and protein levels in cultured human primary hepatocytes (See FIGS. 5A-B).
HepG2 cells were transfected with hCAR1+A expression plasmid and CYP2B6-2.2k firely luciferase reporter construct. Transfected cells were treated with vehicle control (0.1% DMSO), CITCO and DL5016 at indicated concentrations for 24 h, CYP2B6 reported activities were normalized as folds over vehicle control and are expressed as means±SD (n=3). * p<0.05; ***, p<0.001. The results for the effects of DL 5016 compared with CITCO on hCAR-mediated CYP2B6 reported gene activation are shown in FIG. 2.

CYP2B6 = test: Induction of CYP2B6 vs CYP3A4 mRNA (RT-PCR) and protein (Western blot) in human primary hepatocytes; type: cell-based; conditions: for hCAR activation with preferred expression of CYP2B6 protein: FIGS. 3B-3D
Protocol: HPHs were obtained from Bioreclamation, IVT. Hepatocytes with viability over 90% were seeded at 1.5×10^6 or 7.5×10^5 cells per well in 6- or 12-well collagen-coated plates. After 4 hours of attachment, cells were overlaid with Matrigel (0.25 mg/mL) in serum-free Williams E medium to form the sandwich culture. Following incubation for 36 hours, HPH were treated with DMSO (0.1%) or hCAR activator (i.e. CITCO or DL 5016) (1 mmol/L) for 24 or 72 hours for mRNA and protein detection, respectively. In separate experiments, wild-type (WT) and CAR-knockout (KO) HepaRG cells obtained from Sigma-Aldrich were cultured in 6- or 12-well collagen-coated plates. Cells were further treated with DMSO or hCAR activator.
Total RNA from HPH and lymphoma cells was isolated with TRizol Reagent (Life Technologies) and reverse transcribed using a High Capacity cDNA Archive kit (Applied Biosystems) following the manufacturers' instructions. mRNA expression of CYP2B6, CYP3A4, was normalized against that of GAPDH. Real-time PCR assays were performed in 96-well optical plates on a StepOnePlus Real-Time PCR System with SYBR Green PCR Master Mix (Applied Biosystems). The primer sequences used for real-time PCR analyses included: CYP2B6: 50-[…]-30 and 50-CCTTCACCAAGACAAATC-CGC-30; CYP3A4: 50-[…]-30 and 50[…]-30. Fold induction of genes over control was determined as 2DDCt, where DCt is representative of the cycle threshold number difference between the target gene and GAPDH and DDCt represents the relative change in the intergroup variations.
(§2) Homogenate proteins from treated HPH, H9c2 or HepaRG cells were resolved on NuPAGE Novex Bis-Tris 4% to 12% gels (Life Technologies) and electrophoretically transferred onto immobilon-P polyvinylidene difluoride membranes. Membranes were incubated with specific antibodies against human CAR (Perseus Proteomics), cleaved caspase-3 (Cell Signaling Technology), or g-H2AX (Millipore), diluted 1:1,000, 1:1,000, and 1:400, respectively. b-Actin was used to normalize protein loading. Following incubation with horseradish peroxidase goat antimouse or anti-rabbit IgG antibody, membranes were developed using SuperSignal West Pico Chemiluminescent Substrate (Thermo Scientific). Western blot signals were quantified by densitometry using ImageJ software from the National Institutes of Health.
The human primary hepatocytes from human donor were treated with vehicle control (0.1% DMSO) or DL5016 at a concentration ranging from 0.1 μM to 1 μM for 24 h and 72 h. The expression mRNA for CYP2B6 and CYP3A4 and CYP2B6 and CYP3A4 protein were analyzed at the time point of 24 h and 72 h respectively.

SU-DHL-4 cells = test: Hepatocyte/lymphoma co-culture with CHOP: cancer cell death, viability, caspase-3; type: cell-based, human; conditions: hepatocyte/lymphoma co-culture, added to CHOP, FIGS. 10B-C
Protocol: HPH were cultured in collagen-coated 12-well plates and pretreated with vehicle control (0.1% DMSO) or hCAR activator (1 mmol/L) for 24 hours. The wells were then separated with […] polycarbonate membrane inserts (Sigma-Aldrich). A total of 0.5×10^6 SU-DHL-4 cells suspended in supplemented Williams' Medium E were transferred into the insert chamber with a final volume of 2 mL/well. In separate coculture experiments, HPH were replaced with either WT or CAR-KO HepaRG cells. The cocultures were exposed to designated concentrations of the chemotherapy drugs in CHOP in the presence or absence of hCAR activator for various time intervals, as indicated.
as §2
HPHs and H9c2 rat cardiomyocytes were seeded at 7.5×10^4 cells per well in 96-well plates. HPH were cultured for 24 hours before treatment with hCAR activator (1 mmol/L) or vehicle control (0.1% DMSO), followed by treatment with the chemotherapy drugs included in CHOP at a range of concentrations. Culture medium containing CHOP drugs and metabolites was exchanged between the cell types at pre-determined time points. A typical 3-[4,5-dimethylthiazol-2-yl]-2,5 diphenyl tetrazolium bromide (MTT) assay was carried out as described previously (21). Cell viability was expressed as the percentage of vehicle control (0.1% DMSO). Cocultured cells were assembled and treated as described above. The viability of the SU-DHL-4 cells was determined at selected time points with a Cellometer Auto T4 (Nexcelom Biosciences) using trypan blue exclusion.

Aqueous solubility = type: physicochemical
hPXR = target: T2, hPXR (Homo sapiens, UniProt O75469); test: hPXR luciferase reporter assay; type: cell-based; conditions: concentrations under 1 μm; FIGS. 3E-3J
T2 sequence (O75469 1-434): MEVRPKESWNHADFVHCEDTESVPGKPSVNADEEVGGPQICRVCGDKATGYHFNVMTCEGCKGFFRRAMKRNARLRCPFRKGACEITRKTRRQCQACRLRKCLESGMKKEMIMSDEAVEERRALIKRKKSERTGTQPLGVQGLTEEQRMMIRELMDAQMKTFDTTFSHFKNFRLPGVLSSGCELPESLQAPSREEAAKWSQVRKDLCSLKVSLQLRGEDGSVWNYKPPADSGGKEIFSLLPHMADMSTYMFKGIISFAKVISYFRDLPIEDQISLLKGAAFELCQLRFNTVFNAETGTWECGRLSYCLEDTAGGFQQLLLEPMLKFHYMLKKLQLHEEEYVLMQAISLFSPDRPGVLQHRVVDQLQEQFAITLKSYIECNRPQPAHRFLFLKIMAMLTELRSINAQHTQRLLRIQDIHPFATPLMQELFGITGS
Excerpt: as §1

SMILES: c1ccc2c(c1)CC(NCc1c(-c3ccc4ccccc4c3)nc3occn13)C2 [DL5016, N-((6-(naphthalen-2-yl)imidazo[2,1-b]oxazol-5-yl)methyl)-2,3-dihydro-1H-inden-2-amine]
- hCAR activity (CYP2B6 reporter gene activation) compared with CITCO (hCAR; HepG2 cells, hCAR1+A plasmid, CYP2B6-2.2k luciferase reporter, 24 h, FIG. 2): higher hCAR-inducing activity than CITCO; also recorded: more effective than CITCO
- induction of CYP2B6 over CYP3A4 at mRNA and protein levels (CYP2B6; human primary hepatocytes, 0.1-1 μM, 24 h (mRNA) and 72 h (protein), FIG. 3A): potent and selective induction of CYP2B6 over CYP3A4
- effect on CHOP anticancer activity (cancer cell death) (SU-DHL-4 cells): potentiates the beneficial effects of CHOP in causing cancer cell death; also recorded: clearly enhanced the regimen's anticancer activity
- effect on CHOP anticancer activity (cancer cell death) (SU-DHL-4 cells; listed as DL 5016): potentiate the beneficial effects of CHOP in causing cancer cell death
- aqueous solubility compared with CITCO (Aqueous solubility): improved aqueous solubility

SMILES: Cl.Clc1ccc(-c2nc3sccn3c2CNCCc2ccc(Cl)c(Cl)c2)cc1 [DL4072, N-((6-(4-chlorophenyl)imidazo[2,1-b]thiazol-5-yl)methyl)-2-(3,4-dichlorophenyl)ethan-l-amine hydrochloride]
- activation of hCAR (hCAR): activated hCAR
- activation of hPXR (hPXR): not hPXR
- hCAR activation with preferred expression of CYP2B6 protein (CYP2B6): activate hCAR resulted preferred expression of CYP2B6 protein

SMILES: Clc1ccc(-c2nc3sccn3c2CNCCc2cccc(Br)c2)cc1 [DL4104, 2-(3-bromophenyl)-N-((6-(4-chlorophenyl)imidazo[2,1-b]thiazol-5-yl)methyl)ethan-1-amine]
- hCAR activation with preferred expression of CYP2B6 protein (CYP2B6): activate hCAR resulted preferred expression of CYP2B6 protein

SMILES: Clc1ccc(-c2nc3sccn3c2CNCCc2ccc(Br)cc2)cc1 [DL 4100, 2-(4-bromophenyl)-N-((6-(4-chlorophenyl)imidazo[2,1-b]thiazol-5-yl)methyl)ethan-1-amine]
- hCAR activation with preferred expression of CYP2B6 protein (CYP2B6): activate hCAR resulted preferred expression of CYP2B6 protein

SMILES: Clc1ccc(-c2nc3sccn3c2CNCCc2ccc(Cl)c(Br)c2)cc1 [DL 4102, 2-(3-bromo-4-chlorophenyl)-N-((6-(4-chlorophenyl)imidazo[2,1-b]thiazol-5-yl)methyl)ethan-1-amine]
- hCAR activation with preferred expression of CYP2B6 protein (CYP2B6): activate hCAR resulted preferred expression of CYP2B6 protein

SMILES: Clc1ccc(-c2nc3sccn3c2CNCCc2cccc(Cl)c2)cc1 [DL4094, 2-(3-chlorophenyl)-N-((6-(4-chlorophenyl)imidazo[2,1-b]thiazol-5-yl)methyl)ethan-1-amine]
- hCAR activation with preferred expression of CYP2B6 protein (CYP2B6): activate hCAR resulted preferred expression of CYP2B6 protein

SMILES: Clc1ccc(-c2nc3sccn3c2/C=N/CCc2ccc(Cl)c(Cl)c2)cc1 [DL4059, (E)-1-(6-(4-chlorophenyl)imidazo[2,1-b]thiazol-5-yl)-N-(3,4-dichlorophenethyl)methanimine]
- activation of hCAR (hCAR): low activity
- activation of hPXR (hPXR): low activity
- hCAR activation with preferred expression of CYP2B6 protein (CYP2B6): activate hCAR resulted preferred expression of CYP2B6 protein

SMILES: Clc1ccc(-c2nc3sccn3c2CNCCc2ccc(Cl)c(Cl)c2)cc1 [DL4097, N-((6-(4-chlorophenyl)imidazo[2,1-b]thiazol-5-yl)methyl)-2-(3,4-dichlorophenyl)ethan-1-amine]
- hCAR activation with preferred expression of CYP2B6 protein (CYP2B6): activate hCAR resulted preferred expression of CYP2B6 protein

SMILES: Clc1ccc(CCNCc2c(-c3ccc(Cl)cc3)nc3sccn23)cc1 [DL4095, 2-(4-chlorophenyl)-N-((6-(4-chlorophenyl)imidazo[2,1-b]thiazol-5-yl)methyl)ethan-1-amine]
- hCAR activation with preferred expression of CYP2B6 protein (CYP2B6): activate hCAR resulted preferred expression of CYP2B6 protein

SMILES: FC(F)(F)c1ccc(CCNCc2c(-c3ccc(Cl)cc3)nc3sccn23)cc1Cl [DL4103, 2-(3-chloro-4-(trifluoromethyl)phenyl)-N-((6-(4-chlorophenyl)imidazo[2,1-b]thiazol-5-yl)methyl)ethan-1-amine]
- hCAR activation with preferred expression of CYP2B6 protein (CYP2B6): activate hCAR resulted preferred expression of CYP2B6 protein
